Columns and labels:
[1] = Fluorogenic characterization of HELIOS probes on reaction with TCOc; type: physicochemical; conditions: for peak turn-on ratio upon reaction with TCOc: PBS; for Fluorescence Enhancement: fluorogenic turn-on ratio of the Me-tetrazines upon reaction with TCOc
Protocol: As described above, the fluorescence purity of all HELIOS compounds was verified by LCMS prior to quantitative activation experiments, for which a fresh aliquot of the fluorophore collected from the analytical HPLC elution was used. Exceptionally pure material is required to obtain the peak measured turn-on ratios, as the presence of trace bright contaminants limits the maximum observable ratio.
(§1) Stock solutions of the freshly-purified tetrazine dyes were prepared in MeCN and stored in the dark at 4° C. during experiments. For fluorescence measurements, the probes diluted into 2 mL or 3 mL of phosphate buffered saline (PBS), pH 7.4 (Corning, cellgro) in a standard 10 mm quartz cuvette. Working at peak excitation and emission wavelengths for each probe, data were collected as a continuous time series to enable accurate measurement of the baseline intensity values and optimize signal to noise. Fluorescence experiments were conducted at a range of dye concentrations spanning 100 nM-750 nM, with 500 nM being a typical working concentration. The time to peak turn on ratio (but not the final magnitude) is a function of the added TCOc (see Example 25) concentration; for the time courses presented herein, 10 μM TCOc was used. Measurements of solvent and pre-activation emission intensity for baseline values were collected serially over at least 30 seconds, prior to addition of TCOc to initiate the fluorogenic reaction. After addition of TCOc (typically a 20-fold excess, as above), the fluorescence emission intensity was monitored until a plateau was reached. Activation ratios were calculated from the peak emission intensity of the dihydropyridazine product and the corresponding baseline intensity over background. Data were normalized to set the initial background fluorescence of the HELIOS probe to one unit over background, as plotted in FIG. 9 in the main text.

[2] = Peak excitation/emission wavelengths and extinction coefficient in PBS; type: physicochemical; conditions: for ε: at peak excitation wavelength in PBS, pH 7.4, in M-1cm-1 (unit assumed); for Peak Em Wavelength: emission; for Peak Ex Wavelength: excitation
Protocol: as §1
(§2) Microscope: Multichannel images were collected on an Olympus Fluoview FV1000 confocal laser microscope. Coumarin probes were excited with a 405 nm laser, with alternate excitation sources used as relevant for reference channels, paired with appropriate emission filter sets. Cell culture: A-431 cells (ATCC CRL-1555) and COS-1 cells (ATCC CRL-1650) were cultivated in Dulbecco's Modified Eagle's Medium (DMEM), supplemented with 10% fetal bovine serum and grown in standard culture conditions in 10 cm dishes. OVCA-429 cells were cultivated in RPMI-1640 supplemented with 10% fetal bovine serum under standard culture conditions. For imaging experiments cells were plated on Millicell EZ slides (EMD Millipore, Inc, Billerica, Mass.). Antibody reagents: Monoclonal antibody-TCO conjugates were prepared by incubation of commercially available monoclonal antibodies TCO-PEG4-NHS (Click Chemistry Tools, Scottsdale, Ariz.). Anti EGFR (Cetuximab, Imclone). Anti cytochrome c oxidase (COXIV, Cell signaling Technology, #4844, Danvers, Mass.). An aliquot of antibody in the manufacturer-supplied storage solution was buffer exchanged into PBS with 10 mM sodium bicarbonate, pH 8.0, on a 40K ZebaSpin desalting column (0.5 mL, Thermo Fisher Scientific, Rockford, Ill.). To this solution was added 20 equivalents of TCO-PEG4-NHS; the mixture was allowed to react at 25° C. for 30 minutes, with continuous shaking. The reaction mix was loaded onto a 40K ZebaSpin column to remove organic solvent and small molecule fractions; this eluate was loaded onto a second 40K ZebaSpin column to ensure comprehensive removal of any excess TCO. EGFR Imaging: Fixed A431 cells were prepared by treatment with 4% paraformaldehyde solution (10 min, room temperature), followed by 3 washes with PBS. Fixed cells were stored at 4° C. until the time of imaging, when they were incubated for 20 minutes with 20 μg/mL cetuximab-TCO, then rinsed three times with PBS. For optimal image quality, HELIOS 370H probe must be purified on the day of imaging by reversed phase HPLC-MS. The concentration of stock solutions in PBS were calculated by absorbance spectrometry, based on the measured extinction coefficient of 19000 M^−1 cm^−1. Prior to imaging, the purified stock solutions were subjected to turn-on testing, verifying a fluorogenic turn-on ratio of >1000-fold for HELIOS 370H. For imaging experiments, the acetonitrile stocks were diluted into PBS to yield a 100 nM solution. […]

[3] = Quantum yield determination, quinine sulfate reference; type: physicochemical; conditions: dihydropyridazine product after complete reaction with TCOc in PBS pH 7.4; quinine sulfate standard (Φ = 0.546)
Text: Quantum yield determinations: quinine sulfate dihydrate (Fluorescence Reference Standard grade, AnaSpec, Inc) in 0.5 M H2SO4 was used as a reference, with an excitation wavelength of 370 nm; a value of 0.546 was used for the reference quantum yield (Eaton, D. F., Pure and Applied Chemistry, 1988 60(7), 1107-1114). Calculations were made according to the methods described by Crosby and Demas (Chemical Reviews, 1971, 75(8), 991-1024).

[4] = tested on: epidermal growth factor receptor (EGFR) on A431 cells; experiment: No-wash fluorogenic imaging of EGFR on A431 cells after cetuximab-TCO; type: cell-based, human
Text: as §2, with “For optimal image quality, HELIOS 370H probe must be purified on the day of imaging by reversed phase HPLC-MS.” left out, “cm^−1.” for “cm^−1. Prior to imaging, the purified stock solutions were subjected to turn-on testing, verifying a fluorogenic turn-on ratio of >1000-fold for HELIOS 370H. For imaging experiments, the acetonitrile stocks were diluted into PBS to yield a 100 nM solution.”

[5] = tested on: mitochondria of OVCA-429 cells; experiment: Mitochondria imaging of OVCA-429 cells after anti-COX IV-TCO; type: cell-based
Text: as §2, with “For optimal image quality, HELIOS 370H probe must be purified on the day of imaging by reversed phase HPLC-MS.” left out, “cm^−1.” for “cm^−1. Prior to imaging, the purified stock solutions were subjected to turn-on testing, verifying a fluorogenic turn-on ratio of >1000-fold for HELIOS 370H. For imaging experiments, the acetonitrile stocks were diluted into PBS to yield a 100 nM solution.”

[6] = Solvent polarity effects on fluorescence emission of the native probe; type: physicochemical; conditions: PBS pH 7.4, acetonitrile, toluene
Protocol: FIG. 5 provides the absorption and fluorescence emission spectra of 4b in toluene (dielectric constant 2.4) and acetonitrile (dielectric constant 37.5). Samples were prepared by matched dilutions from a concentrated stock solution of 4b. For the fluorescence spectra, the excitation wavelength was offset from peak absorbance in that solvent by 10 nm; in toluene, the excitation wavelength was 496 nm; in acetonitrile,
Fluorescence emission spectra of HELIOS 400Me in PBS (pH 7.4), acetonitrile (dielectric constant 37.5), and toluene (dielectric constant 2.4) was measured (see FIG. 10). Emission spectra are the mean of 2 or 3 scans and the dashed lines represent +/−SEM. Instrument settings were adjusted to optimize sensitivity given the minimal fluorescence of the native HELIOS probe, and samples were prepared by matched dilution of a concentrated stock solution of HELIOS 400Me into the respective solvents. […] J. Meskers, E. H. A. Beckers, S. Chopin, R. A. J. Janssen, J. Phys. Chem. A 2006, 110, 12363].

[7] = Solubility in aqueous media; type: physicochemical; conditions: PBS, micromolar concentrations

| SMILES | peak turn-on ratio upon reaction with TCOc [1] | Fluorescence Enhancement [1] | ε [2] | Peak Em Wavelength [2] [nm] | Peak Ex Wavelength [2] [nm] | Φ w/TCOc [3] | further results |
| --- | --- | --- | --- | --- | --- | --- | --- |
| Cc1nnc(-c2cccc(-c3c(C)c4ccc(N)cc4oc3=O)c2)nn1 [HELIOS 347Me] | 2,500 fold | 2,500-fold | 18,500 | 455 | 347 | 0.29 | – |
| Cc1c(-c2cccc(-c3nncnn3)c2)c(=O)oc2c(F)c(O)c(F)cc12 [HELIOS 370H] | – | – | – | – | – | – | fluorogenic turn-on ratio of purified stock prior to imaging ([1]; turn-on testing of freshly purified stock solutions): > 1000 fold; measured extinction coefficient ([2]; stock solutions in PBS): 19000 M⁻¹ cm⁻¹; staining pattern ([4]; 100 nM in PBS, no wash): bright, membrane specific staining; time until specific staining evident ([4]; 100 nM probe in PBS, fixed A431 cells, cetuximab-TCO): ≤ 10 s; nonspecific binding ([4]; after extended incubation): no nonspecific binding |
| Cc1nnc(-c2cccc(-c3c(C)c4cc(F)c(O)c(F)c4oc3=O)c2)nn1 [HELIOS 370Me] | 2,900 fold | 2,900-fold | 19,000 | 463 | 370 | 0.49 | – |
| Cc1c(-c2cccc(-c3nncnn3)c2)c(=O)oc2cc3c(cc12)CCCN3 [HELIOS 388H] | – | – | – | – | – | – | time until mitochondrial labeling evident ([5]; 100 nM, fixed and permeabilized OVCA-429 cells): ≤ 2 min; colocalization with mitochondria-specific RFP ([5]; OVCA-429 cells expressing RFP): good colocalization; target to background ratio over time ([5]; serial images up to an hour from dye addition): stable target to background ratios |
| Cc1nnc(-c2cccc(-c3c(C)c4cc5c(cc4oc3=O)NCCC5)c2)nn1 [HELIOS 388Me] | 11,000 fold | 11,000-fold | 20,000 | 482 | 388 | 0.38 | – |
| Cc1nnc(-c2cccc(-c3c(C)c4cc5c6c(c4oc3=O)CCCN6CCC5)c2)nn1 [HELIOS 400Me] | 4,000 fold | – | – | – | – | – | dependence of fluorescence emission intensity on solvent polarity [6]: largely independent of solvent polarity; Solubility in phosphate buffered saline [7]: soluble |
| Cc1nnc(-c2ccc(-c3c(C)c4cc5c6c(c4oc3=O)CCCN6CCC5)cc2)nn1 [HELIOS 400pMe] | 1,000 fold | – | – | – | – | – | Solubility in phosphate buffered saline [7]: soluble |
| Cc1c(CC(=O)NCc2ccc(-c3nncnn3)cc2)c(=O)oc2c(F)c(O)c(F)cc12 [Marina Blue-Tz, reference compound] | 60 fold | 60-fold | – | 459 | 362 | – | – |
